Test results: patent US20230072225A1, “CONTROLLED RELEASE COMPOSITION AND METHOD” (DUPONT NUTRITION USA, INC., priority 2014, published 2023)

Assay: Minimum film formation temperature (MFFT) of AquaCoat ECD-30 suspensions, MFFT-bar model 90
Type: physicochemical
Conditions: added at 9% by weight based on ethylcellulose solids
Protocol: The MFFT of such suspensions was tested with MFFT-bar model 90. The MFFT bar was preset and the desired temperature range was selected depending on predicted MFFT value. Ranges 3 (5° C. to 18° C.), 4 (15° C.-33° C.) or range 5 (23° C. to 50° C.) were used in this study. The formulation was applied using a 400 micron cube applicator from warm side to cold side, and the MFFT value was read after the film was formed.
Such compounds were added at a rate of 9% by weight (based on weight of ethylcellulose solids). The compounds evaluated were PGDL (propylene glycol dilaurate; HLB 2)), GMC (glyceryl monocaprylate, HLB 8.3), GML (glyceryl monooleate, HLB 2.8) and TGDS (triglycerol diisosterarate HLB 10-13). […] Sticky residue was found in the formulation even after mixing for extended time. The film on the MFFT bar was not smooth or transparent.

| Effect on MFFT of the formulation | Compound | Compatibility with the formulation |
| --- | --- | --- |
| – | CCCCCCCC(=O)OCC(O)CO (stereo not drawn) [GMC, glyceryl monocaprylate] | didn't have good compatibility with the formulation |
| didn't effectively decrease the MFFT | CCCCCCCCCCCC(=O)OCC(C)OC(=O)CCCCCCCCCCC (stereo not drawn) [PGDL, propylene glycol dilaurate] | – |
| – | triglycerol diisosterarate [TGDS] | didn't have good compatibility with the formulation |
